Assay results: US20260226027A1, “DEUTERATED COMPOUNDS” (Neurocrine Biosciences, Inc., priority 2023, published 2026)

Columns and labels:
[1] = tested on: human hepatocytes; assay: Metabolite profile in cryopreserved human hepatocytes; format: in vitro ADME; conditions: 10 μM Compound 1, 120 min
Description: (§1) Metabolite profile and metabolite identification of Compound 1 were studied in cryopreserved SD-rat, beagle dog and human hepatocytes. The incubations were conducted using 10 μM initial concentrations of test substance and sampling at 0 min, 60 min, and 120 min. The samples were analysed using UPLC/Q-TOF-MS. Incubation material and procedures are provided Table 1. The samples were thawed at room temperature (RT), centrifuged (10 min at 13000×g (Heraeus Pico 17 centrifuge), and the supernatants were pipetted to glass vials to wait for analysis. Analysis was performed using liquid chromatography-mass spectrometry (LC-MS) according to the parameters described in Table 2. The samples were thawed at room temperature (RT), centrifuged (10 min at 13000×g (Heraeus Pico 17 centrifuge), and the supernatants were pipetted to glass vials to wait for analysis.

[2] = tested on: SD-rat hepatocytes; assay: Metabolite profile in cryopreserved SD-rat hepatocytes; format: in vitro ADME; conditions: 10 μM Compound 1, 120 min
Description: as §1

[3] = tested on: beagle dog hepatocytes; assay: Metabolite profile in cryopreserved beagle dog hepatocytes; format: in vitro ADME; conditions: 10 μM Compound 1, 120 min
Description: as §1

[4] = Control incubation without cells; format: in vitro ADME
Description: as §1

[5] = tested on: SD-rat, beagle dog and human hepatocytes; assay: Hepatocyte incubation, remaining abundance in all species; format: in vitro ADME; conditions: 10 μM
Description: as §1

[6] = Metabolite identification in cross-subject human plasma pool; format: in vivo; conditions: day 7, 0-24 h pool, multiple daily oral 15 mg Compound 1, n=8
Description: The in vivo metabolism of Compound 1 was investigated in studies using rat, dog, rabbit, and human plasma and human urine samples from toxicology studies, an embryofetal development study, and a human clinical study.
Human plasma and urine samples originated from a human clinical study with subjects aged 65 years or older, dosed with 15 mg daily and achieving steady-state before day 7. Samples were stored at −75° C. or below from collection until analysis.
Human plasma samples from each Compound 1-dosed subject (15 mg; n=8) collected at day 7 at 0.25 h, 0.5 h, 1 h, 1.5 h, 2 h, 3 h, 4 h, 6 h, 8 h, 10 h, 12 h and 24 h after multiple daily oral administration were pooled for analysis. Plasma from placebo-dosed subjects (n=2) taken at the same time-points and pre-dose plasma collected on day 1 from Compound 1-dosed subjects were used as control for metabolite identification.
Time-normalized pooled plasma samples (day 7; 0-24 h) were prepared for each human subject treated with Compound 1 (15 mg; n=8) or with placebo (n=2) (see e.g., Hamilton et al, Clin. Pharmacol. Ther. 1983, 29(3):408-13). Composite time-normalized pooled plasma samples for human subjects dosed with Compound 1 or placebo were then prepared by combining an equal volume from the pooled sample prepared for each subject. A composite control plasma sample was prepared by combining an equal volume of pre-dose plasma from human subjects treated with Compound 1 (n=8).
Aliquots (100 μL) of the pooled plasma samples prepared for metabolite identification were treated with ice-cold acetonitrile (500 μL), mixed and centrifuged (2000 g; 4° C.; 10 min). […]
Samples were analysed by LC-MS, utilising a Vion Q-TOF mass spectrometer (Waters), Acquity I-class LC pumps, column heater, sample manager and photodiode array detector (Waters). […] Metabolite abundance was calculated as a percentage of total drug-related material in a given sample; the MS peak areas were collated and summed, and the abundance of each metabolite calculated as a percentage of the total in each sample. […]

[7] = Metabolite identification in cross-subject human urine pool; format: in vivo; conditions: day 7, 0-24 h pool, multiple daily oral 15 mg Compound 1, n=8
Description: Human urine samples from the Compound 1-dosed subjects (15 mg; n=8) collected at day 7 between 0-4 h, 4 h-8 h, 8 h-12 h and 12 h-24 h after multiple daily oral administration were also pooled for analysis. Urine from placebo-dosed subjects (n=2) collected at day 7 over the same time periods was used as control for metabolite identification.
A composite urine sample (day 7; 0-24 h) was prepared for each human subject treated with Compound 1 (15 mg; n=8) or with placebo (n=2) by combining proportional amounts of the sample collected over each time period. Composite cross-subject urine samples for human subjects dosed with Compound 1 or placebo were then prepared by combining proportional amounts of pooled urine from each subject. All urine pools were mixed and centrifuged (2000 g; 4° C.; 10 min) prior to analysis.
Samples were analysed by LC-MS, utilising a Vion Q-TOF mass spectrometer (Waters), Acquity I-class LC pumps, column heater, sample manager and photodiode array detector (Waters). The mass spectrometer was set to operate in positive ion mode and a number of experiments were performed to enable the acquisition of full scan and product ion data. […] Metabolite abundance was calculated as a percentage of total drug-related material in a given sample; the MS peak areas were collated and summed, and the abundance of each metabolite calculated as a percentage of the total in each sample. Based on apparent abundance, metabolites were categorized as ‘major’ if present at 10% or more of the total drug-related material, ‘minor’ if between 1 and <10% and ‘trace’ if <1%.

Row | SMILES | Metabolite profile, Human 120 min, % [1] [%] | Metabolite profile, Rat 120 min, % [2] [%] | Metabolite profile, Dog 120 min, % [3] [%] | Metabolite profile, No cells 120 min, % ([4]; incubation without cells, 10 μM, 120 min) [%] | disappearance in the control incubation without cells ([4]; without cells) | remaining abundances after 120 min incubation period [5] | % Abundance in Sample, Plasma (% of total drug-related material) [6] [%] | % Abundance in Sample, Urine (% of total drug-related material) [7] [%]
1 | CCOC(=O)N1CC[C@]2(C1)C[C@@H](N1CCC(c3ccnn3C)CC1)C2 [Compound 1, cis ethyl 2-[4-(1-methyl-1H-pyrazol-5-yl)piperidin-1-yl]-6-azaspiro[3.4]octane-6-carboxylate] | 84.0 | 93.7 | 94.9 | 100 | Practically no disappearance | 79-93% | 82.0 | 63.3
2 | CCOC(=O)N1CC[C@]2(C1)C[C@@H](N1CCC(c3ccn[nH]3)CC1)C2 [Compound M2] | 0.3 | 0.1 |  |  |  |  | 2.3 | 3.3
3 | Cn1nccc1C1CCN([C@H]2C[C@]3(CCNC3)C2)CC1 [Compound M4] | 13.8 | 4.9 | 4.6 |  |  |  | 11.4 | 26.4
